Converted amounts (≈) assume the structure as drawn.
What was measured:
Type in all cases: cell-based
[1] = test system: Erysipelothrix rhusiopathiae NCTC 8163; experiment: MIC against veterinary bacteria; conditions: NCTC8163, Diagnostic Sensitivity Test Agar, 18 hours, 37° C., read-out: MIC
Description: (§1) The values were determined using a two fold serial dilutions in Diagnostic Sensitivity Test Agar with an inoculum of 10^4 organisms and incubation for 18 hours at 37° C.

S. dublin S7 = experiment: MIC against veterinary bacteria; conditions: Salmonella enterica, Diagnostic Sensitivity Test Agar, 18 hours, 37° C., read-out: MIC
Description: as §1

Bord. bronchiseptica B08 = experiment: MIC against veterinary bacteria; conditions: Bordetella bronchiseptica, B08, 18 h, Diagnostic Sensitivity Test Agar, 37° C., read-out: MIC
Description: as §1

E. coli E1 = experiment: MIC against veterinary bacteria; conditions: Escherichia coli, Diagnostic Sensitivity Test Agar, 18 hours, 37° C., read-out: MIC
Description: as §1

Strep. uberis SPU1 = experiment: MIC against veterinary bacteria; conditions: Streptococcus uberis, SPU1, 18 h
Description: as §1

E. coli NCTC 10418 [2] = experiment: MIC against veterinary bacteria; conditions: Escherichia coli, NCTC10418, Diagnostic Sensitivity Test Agar, 18 hours, 37° C., read-out: MIC
Description: as §1

Bord. bronchiseptica B09 = experiment: MIC against veterinary bacteria; conditions: Bordetella bronchiseptica, B09, 18 h, Diagnostic Sensitivity Test Agar, 37° C., read-out: MIC
Description: as §1

Past. haemolytica PA5 = experiment: MIC against veterinary bacteria; conditions: Mannheimia haemolytica, PA5, 18 h, Diagnostic Sensitivity Test Agar, 37° C., read-out: MIC
Description: as §1

[3] = test system: Strep. suis (group D) SPS11; experiment: MIC against veterinary bacteria; conditions: Streptococcus suis, 18 h, Diagnostic Sensitivity Test Agar, 37° C., read-out: MIC
Description: as §1

Staph. aureus Oxford [4] = experiment: MIC against veterinary bacteria; conditions: Staphylococcus aureus, 18 h, Diagnostic Sensitivity Test Agar, 37° C., read-out: MIC
Description: as §1

Staph. aureus 152 = experiment: MIC against veterinary bacteria; conditions: Staphylococcus aureus, 152, 18 h, Diagnostic Sensitivity Test Agar, 37° C., read-out: MIC
Description: as §1

Strep. dysgalactiae SPD1 = experiment: MIC against veterinary bacteria; conditions: Streptococcus dysgalactiae, SPD1, 18 h, Diagnostic Sensitivity Test Agar, 37° C., read-out: MIC
Description: as §1

Past. multocida PA1 = experiment: MIC against veterinary bacteria; conditions: Pasteurella multocida, PA1, 18 h, Diagnostic Sensitivity Test Agar, 37° C., read-out: MIC
Description: as §1

S. typhimurium S18 = experiment: MIC against veterinary bacteria; conditions: Salmonella enterica, Diagnostic Sensitivity Test Agar, 18 hours, 37° C., read-out: MIC
Description: as §1

Strep. agalactiae SPA1 = experiment: MIC against veterinary bacteria; conditions: Streptococcus agalactiae, SPA1, 18 h, Diagnostic Sensitivity Test Agar, 37° C., read-out: MIC
Description: as §1

Past. multocida PA2 = experiment: MIC against veterinary bacteria; conditions: Pasteurella multocida, PA2, 18 h, Diagnostic Sensitivity Test Agar, 37° C., read-out: MIC
Description: as §1

[5] = test system: Corynebacterium pyogenes CY1; experiment: MIC against veterinary bacteria; conditions: Rhodococcus (subgen. Prescottella) equi, Diagnostic Sensitivity Test Agar, 18 hours, 37° C., read-out: MIC
Description: as §1

Staph. aureus B4 = experiment: MIC against veterinary bacteria; conditions: Staphylococcus aureus, B4, 18 h, Diagnostic Sensitivity Test Agar, 37° C., read-out: MIC
Description: as §1

Strep. 2788-B = experiment: MIC against human bacteria; conditions: 18 h, nutrient agar, 5% chocolated horse blood, 37° C., read-out: MIC
Description: (§2) The values were determined by serial dilutions in nutrient agar with 5% chocolated horse blood after incubations for 18 hours at 37° C.

Bacillus subtilis 6633 = experiment: MIC against human bacteria; conditions: Bacillus subtilis, 6633, 18 h, nutrient agar, 5% chocolated horse blood, 37° C., read-out: MIC
Description: as §2

P. mirabilis 889 = experiment: MIC against human bacteria; conditions: Proteus mirabilis, nutrient agar, 5% chocolated horse blood, 18 hours, 37° C., read-out: MIC
Description: as §2

[6] = test system: Strep. pyrogenes R80/421-A; experiment: MIC against human bacteria; conditions: 18 h, nutrient agar, 5% chocolated horse blood, 37° C., read-out: MIC
Description: as §2

Strep. pneumoniae CN33 = experiment: MIC against human bacteria; conditions: Streptococcus pneumoniae, CN33, 18 h, nutrient agar, 5% chocolated horse blood, 37° C., read-out: MIC
Description: as §2

[7] = test system: Corynebacterium xerosis 9755; experiment: MIC against human bacteria; conditions: nutrient agar, 5% chocolated horse blood, 18 hours, 37° C., read-out: MIC
Description: as §2

[8] = test system: Neisseria catarrhalis 1502; experiment: MIC against human bacteria; conditions: Neisseria, 1502, 18 h, nutrient agar, 5% chocolated horse blood, 37° C., read-out: MIC
Description: as §2

K. aerogenes A = experiment: MIC against human bacteria; conditions: Klebsiella aerogenes, nutrient agar, 5% chocolated horse blood, 18 hours, 37° C., read-out: MIC
Description: as §2

E. coli NCTC 10418 [9] = experiment: MIC against human bacteria; conditions: Escherichia coli, NCTC10418, nutrient agar, 5% chocolated horse blood, 18 hours, 37° C., read-out: MIC
Description: as §2

[10] = test system: Ps. aeruginosa NCTC 10662; experiment: MIC against human bacteria; conditions: Pseudomonas aeruginosa, NCTC10662, nutrient agar, 5% chocolated horse blood, 18 hours, 37° C., read-out: MIC
Description: as §2

[11] = test system: Haemophilus influenzae Q1; experiment: MIC against human bacteria; conditions: nutrient agar, 5% chocolated horse blood, 18 hours, 37° C., read-out: MIC
Description: as §2

Staph. aureus Russell = experiment: MIC against human bacteria; conditions: Staphylococcus aureus, 18 h, nutrient agar, 5% chocolated horse blood, 37° C., read-out: MIC
Description: as §2

Past. multocida 1633 = experiment: MIC against human bacteria; conditions: Pasteurella multocida, 1633, 18 h, nutrient agar, 5% chocolated horse blood, 37° C., read-out: MIC
Description: as §2

Strep. 641848-C = experiment: MIC against human bacteria; conditions: 18 h, nutrient agar, 5% chocolated horse blood, 37° C., read-out: MIC
Description: as §2

Staph. aureus Oxford [12] = experiment: MIC against human bacteria; conditions: Staphylococcus aureus, 18 h, nutrient agar, 5% chocolated horse blood, 37° C., read-out: MIC
Description: as §2

Sarcina lutea 8340 = experiment: MIC against human bacteria; conditions: Micrococcus luteus, nutrient agar, 5% chocolated horse blood, 18 hours, 37° C., read-out: MIC
Description: as §2

E. coli ESS = experiment: MIC against human bacteria; conditions: Escherichia coli, 18 h, nutrient agar, 5% chocolated horse blood, 37° C., read-out: MIC
Description: as §2

Staph. aureus W2827 = experiment: MIC against human bacteria; conditions: Staphylococcus aureus, W2827, 18 h, nutrient agar, 5% chocolated horse blood, 37° C., read-out: MIC
Description: as §2

Strep. faecalis I = experiment: MIC against human bacteria; conditions: Enterococcus faecalis, nutrient agar, 5% chocolated horse blood, 18 hours, 37° C., read-out: MIC
Description: as §2

## CC(CC1OCC(CC2OC2C(C)C(C)O)C(O)C1O)=C(F)C(=O)OCc1cccc([N+](=O)[O-])c1 [Example 4, 3-Nitrobenzyl 4-[5S-(2S,3S-epoxy-5S-hydroxy-4S-methylhexyl)-3R,4R-dihydroxytetrahydropyran-2S-yl]-2-fluoro-3-methylbut-2(Z)-enoate]
[1]
  MIC: 80 µg/mL (≈ 161 µM)
S. dublin S7
  MIC: > 80 µg/mL
Bord. bronchiseptica B08
  MIC: 80 µg/mL (≈ 161 µM)
E. coli E1
  MIC: > 80 µg/mL
Strep. uberis SPU1
  MIC: 0.156 µg/mL (≈ 0.314 µM)
E. coli NCTC 10418 [2]
  MIC: > 80 µg/mL
Bord. bronchiseptica B09
  MIC: 10 µg/mL (≈ 20.1 µM)
Past. haemolytica PA5
  MIC: 10 µg/mL (≈ 20.1 µM)
[3]
  MIC: 5 µg/mL (≈ 10 µM)
Staph. aureus Oxford [4]
  MIC: 1.25 µg/mL (≈ 2.51 µM)
Staph. aureus 152
  MIC: 1.25 µg/mL (≈ 2.51 µM)
Strep. dysgalactiae SPD1
  MIC: 0.312 µg/mL (≈ 0.627 µM)
Past. multocida PA1
  MIC: 0.625 µg/mL (≈ 1.26 µM)
S. typhimurium S18
  MIC: > 80 µg/mL
Strep. agalactiae SPA1
  MIC: 1.25 µg/mL (≈ 2.51 µM)
Past. multocida PA2
  MIC: 0.312 µg/mL (≈ 0.627 µM)
[5]
  MIC: 80 µg/mL (≈ 161 µM)
Staph. aureus B4
  MIC: 2.5 µg/mL (≈ 5.02 µM)
Strep. 2788-B
  MIC: 2.5 µg/mL (≈ 5.02 µM)
Bacillus subtilis 6633
  MIC: 0.5 µg/mL (≈ 1 µM)
P. mirabilis 889
  MIC: > 100 µg/mL
[6]
  MIC: 0.5 µg/mL (≈ 1 µM)
Strep. pneumoniae CN33
  MIC: 0.5 µg/mL (≈ 1 µM)
[7]
  MIC: > 100 µg/mL
[8]
  MIC: 0.5 µg/mL (≈ 1 µM)
K. aerogenes A
  MIC: > 100 µg/mL
E. coli NCTC 10418 [9]
  MIC: > 100 µg/mL
[10]
  MIC: > 100 µg/mL
[11]
  MIC: 0.5 µg/mL (≈ 1 µM)
Staph. aureus Russell
  MIC: 2.5 µg/mL (≈ 5.02 µM)
Past. multocida 1633
  MIC: 2.5 µg/mL (≈ 5.02 µM)
Strep. 641848-C
  MIC: 0.5 µg/mL (≈ 1 µM)
Staph. aureus Oxford [12]
  MIC: 2.5 µg/mL (≈ 5.02 µM)
Sarcina lutea 8340
  MIC: > 100 µg/mL
E. coli ESS
  MIC: 1 µg/mL (≈ 2.01 µM)
Staph. aureus W2827
  MIC: 2.5 µg/mL (≈ 5.02 µM)
Strep. faecalis I
  MIC: > 100 µg/mL
